Experimental data: patent US8372621B2, “Methods and materials for the production of shikimic acid” (priority 2003, dated 2013)

Key:
[1] = test system: O=C[C@H](O)[C@H](O)COP(=O)(O)O; experiment: DAHP formation kinetics, wild-type K. pneumoniae KDPGal aldolase (Table 10); type: biochemical, Klebsiella pneumoniae; conditions: other: purified as GST fusion protein; pH 7.5
Protocol: (§1) Enzyme activity is measured by following the formation of 3-dehydroshikimic acid (DHS) over time when DHQ synthase (3-dehydroquinate synthase, E.C. 4.2.3.4) and DHQ dehydratase (E.C. 4.2.1.10) are utilized as coupling enzymes. DHQ synthase is prepared as described in Frost, J. W. et al., Biochemistry, 1984, 23, 4470-75; DHQ dehydratase is purified from E. coli AB2848/pKD201 The reaction (1 mL) contains 50 mM morpholinepropanesulfonic acid (MOPS) buffer (pH 7.5), 1 mM D-erythrose 4-phosphate, 1 mM pyruvate, 50 μM CoCl2, 10 μM NAD, 1 U of DHQ synthase, 1 U of DHQ dehydratase and cellular lysate. The reaction is initiated by addition of diluted cellular lysate to the assay solution, and the absorbance at 234 nm monitored continuously for 5 min. One unit of evolved enzyme activity is defined by the formation of one μmol of DHS per minute.

[2] = test system: O=C[C@H](O)[C@H](O)COP(=O)(O)O; experiment: DAHP formation kinetics, evolved variant ST04-5 (Table 10); type: biochemical, Salmonella typhimurium; conditions: other: purified as GST fusion protein; pH 7.5
Protocol: as §1, with “The reaction is initiated by addition of diluted cellular lysate to the assay solution, and the absorbance at 234 nm monitored continuously for 5 min.” left out

[3] = test system: O=C[C@H](O)[C@H](O)COP(=O)(O)O; experiment: DAHP formation kinetics, wild-type S. typhimurium KDPGal aldolase (Table 10); type: biochemical, Salmonella typhimurium; conditions: other: purified as GST fusion protein; pH 7.5
Protocol: as §1

[4] = biological target: S. typhimurium KDPGal aldolase (DgoA) variant ST04-5 (D20E, V28M, S42T, I89T, P150L, D178G; parent SEQ ID NO:6), GST fusion protein (Salmonella enterica, UniProt A0A0H3NU26, D178G/D20E/I89T/P150L/S42T/V28M); experiment: DAHP formation kinetics, evolved variant ST04-5 (Table 10); type: biochemical; conditions: purified as GST fusion protein
Protocol: as §1, with “The reaction is initiated by addition of diluted cellular lysate to the assay solution, and the absorbance at 234 nm monitored continuously for 5 min.” left out

[5] = test system: chimeric KDPGal aldolase (DgoA) variant NR8.165-2 (family shuffling of EC03-1, KP03-3 and ST04-5), GST fusion protein; experiment: DAHP formation kinetics, family-shuffled variant NR8.165-2 (Table 10); type: biochemical, chimera of E. coli, K. pneumoniae and S. typhimurium
Protocol: as §1
(§2) The the dgoA mutants, EC03-1, KP03-3 and ST04-5, were subjected to DNA family shuffling using the single-stranded DNA shuffling method developed by Zhao and coworkers: Zha, W; Zhu, T; Zhao, H., Methods Mol. Biol. 2003, 231, 91-97. […] The dgoA gene hybrids from the five largest colonies that appeared after 2.5 days were sequenced and their encoding KDPGal aldolase activities toward DAHP formation were determined as shown in Table 9.

[6] = test system: chimeric KDPGal aldolase (DgoA) variant NR8.165-4 (family shuffling of EC03-1, KP03-3 and ST04-5), GST fusion protein; experiment: DAHP formation kinetics, family-shuffled variant NR8.165-4 (Table 10); type: biochemical, chimera of E. coli, K. pneumoniae and S. typhimurium
Protocol: as §1, §2

[7] = test system: chimeric KDPGal aldolase (DgoA) variant NR8.165-6 (family shuffling of EC03-1, KP03-3 and ST04-5), GST fusion protein; experiment: DAHP formation kinetics, family-shuffled variant NR8.165-6 (Table 10); type: biochemical, chimera of E. coli, K. pneumoniae and S. typhimurium
Protocol: as §1, §2

[8] = test system: E. coli native DAHP synthase AroF; conditions: Ramilo & Evans 1997, cited from earlier work
[9] = test system: E. coli native DAHP synthase AroG; conditions: Sheflyan et al. 1998, cited from earlier work
[10] = test system: E. coli native DAHP synthase AroH; conditions: Akowski & Bauerle 1997, cited from earlier work
[11] = substrate: O=C[C@H](O)[C@H](O)COP(=O)(O)O; experiment: DAHP formation kinetics, evolved variant EC03-1 (Table 10); type: biochemical, Escherichia coli; conditions: other: purified as GST fusion protein; pH 7.5
Protocol: as §1, with “1 U of DHQ dehydratase and cellular lysate. The reaction is initiated by addition of diluted cellular lysate to the assay solution, and the absorbance at 234 nm monitored continuously for 5 min.” left out

[12] = substrate: O=C[C@H](O)[C@H](O)COP(=O)(O)O; experiment: DAHP formation kinetics, wild-type E. coli KDPGal aldolase (Table 10); type: biochemical, Escherichia coli; conditions: other: purified as GST fusion protein; pH 7.5
Protocol: as §1, with “1 U of DHQ dehydratase and cellular lysate. The reaction is initiated by addition of diluted cellular lysate to the assay solution, and the absorbance at 234 nm monitored continuously for 5 min.” left out

[13] = purified as GST fusion protein, read-out: Km (E4P)
[14] = relative to parent enzymes EC03-1 and ST04-5
[15] = compared with the wild-type E. coli KDPGal aldolase
[16] = read-out: Km for D-erythrose 4-phosphate

S. typhimurium KDPGal aldolase (DgoA) variant ST04-5 (D20E, V28M, S42T, I89T, P150L, D178G; parent SEQ ID NO:6), GST fusion protein, sequence (A0A0H3NU26 whole entry D178G/D20E/I89T/P150L/S42T/V28M, the tested form may be a part): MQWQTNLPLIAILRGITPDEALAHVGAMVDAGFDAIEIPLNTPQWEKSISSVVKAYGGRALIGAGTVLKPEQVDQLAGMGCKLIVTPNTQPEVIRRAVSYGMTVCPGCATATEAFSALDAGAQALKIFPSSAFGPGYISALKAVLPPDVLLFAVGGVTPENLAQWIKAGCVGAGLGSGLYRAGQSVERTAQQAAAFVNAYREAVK

Klebsiella pneumoniae KDPGal aldolase (DgoA), wild type, SEQ ID NO:4, GST fusion protein (Klebsiella pneumoniae subsp. pneumoniae MGH 78578)
Km [1]: 1507 µM

S. typhimurium KDPGal aldolase (DgoA) variant ST04-5 (D20E, V28M, S42T, I89T, P150L, D178G; parent SEQ ID NO:6), GST fusion protein (Salmonella enterica subsp. enterica serovar Typhimurium str. SL1344; D178G/D20E/I89T/P150L/S42T/V28M)
Km [2]: 119 µM

Salmonella typhimurium KDPGal aldolase (DgoA), wild type, SEQ ID NO:6, GST fusion protein (Salmonella enterica subsp. enterica serovar Typhimurium str. SL1344)
Km [3]: 685 µM

O=C[C@H](O)[C@H](O)COP(=O)(O)O [E4P, D-erythrose 4-phosphate]
kcat [4]: 3.24 s⁻¹ | kcat/Km [4]: 27200 M⁻¹ s⁻¹ | kcat ([5]; purified as GST fusion protein): 2.51 s⁻¹ | kcat/Km ([5]; purified as GST fusion protein): 16000 M⁻¹ s⁻¹ | Km [5, 13]: 157 µM | kcat/Km relative to parent enzymes [5, 14]: decrease in kcat/Km values relative to their parent enzymes | increase in kcat [6, 15]: 5 fold | increase in kcat/Km [6, 15]: 25 fold | reduction in Km for D-erythrose 4-phosphate [6, 15]: 5 fold | kcat ([6]; purified as GST fusion protein): 4.76 s⁻¹ | kcat/Km ([6]; purified as GST fusion protein): 41400 M⁻¹ s⁻¹ | Km [6, 13]: 115 µM | kcat ([7]; purified as GST fusion protein): 0.504 s⁻¹ | kcat/Km ([7]; purified as GST fusion protein): 6300 M⁻¹ s⁻¹ | Km [7, 13]: 80 µM | kcat/Km relative to parent enzymes [7, 14]: decrease in kcat/Km values relative to their parent enzymes | kcat [8]: 29.5 s⁻¹ | Km [8, 16]: 81.4 µM | kcat [9]: 10.3 s⁻¹ | Km [9, 16]: 141 µM | kcat [10]: 20.6 s⁻¹ | Km [10, 16]: 35 µM

B1: E. coli KDPGal aldolase (DgoA) variant EC03-1 (F33I, D58N, Q72H, A75V, V85A, V154F; parent SEQ ID NO:2), GST fusion protein (Escherichia coli K-12; … (protein)
chain: MQWQTKLPLIAILRGITPDEALAHVGAVIDAGIDAVEIPLNSPQWEQSIPAIVDAYGNKALIGAGTVLKPEHVDVLARMGCQLIATPNIHSEVIRRAVGYGMTVCPGCATATEAFTALEAGAQALKIFPSSAFGPQYIKALKAVLPSDIAVFAFGGVTPENLAQWIDAGCAGAGLGSDLYRAGQSVERTAQQAAAFVKAYREAVQ
Km [11]: 124 µM | kcat [11]: 2.49 s⁻¹ | kcat/Km [11]: 20100 M⁻¹ s⁻¹

B2: Escherichia coli KDPGal aldolase (DgoA), wild type, SEQ ID NO:2, GST fusion protein (Escherichia coli K-12) (protein)
chain: MQWQTKLPLIAILRGITPDEALAHVGAVIDAGFDAVEIPLNSPQWEQSIPAIVDAYGDKALIGAGTVLKPEQVDALARMGCQLIVTPNIHSEVIRRAVGYGMTVCPGCATATEAFTALEAGAQALKIFPSSAFGPQYIKALKAVLPSDIAVFAVGGVTPENLAQWIDAGCAGAGLGSDLYRAGQSVERTAQQAAAFVKAYREAVQ
Km [12]: 571 µM | kcat [12]: 0.94 s⁻¹ | kcat/Km [12]: 1650 M⁻¹ s⁻¹
